Results taken from patent US20230263822A1, “MODULATION OF FACTOR 11 EXPRESSION” (Ionis Pharmaceuticals, Inc., priority 2008, published 2023).

Assays:
human Factor 11 mRNA = test: Dose-dependent antisense inhibition of human Factor 11 in HepG2 cells, lipofectin 9.375-150 nM (Example 2); type: cell-based; conditions: ~16 h
[1] = Liver function, ALT, AST, bilirubin in cynomolgus monkeys (Example 45); type: in vivo; conditions: plasma, escalating dose regimen
Description: Groups, each consisting of two male and three female monkeys, were injected subcutaneously with ISIS 416838, ISIS 416850, ISIS 416858, ISIS 416864, or ISIS 417002 in escalating doses. Antisense oligonucleotide was administered to the monkeys at 5 mg/kg three times per a week for week 1; 5 mg/kg twice per week for weeks 2 and 3; 10 mg/kg three times per week for week 4; 10 mg/kg twice per week for weeks 5 and 6; 25 mg/kg three times per week for week 7; and 25 mg/kg twice per week for weeks 8, 9, 10, 11, and 12. One control group, consisting of two male and three female monkeys, was injected subcutaneously with PBS according to the same dosing regimen. An additional experimental group, consisting of two male and three female monkeys, was injected subcutaneously with ISIS 416850 in a chronic, lower dose regimen. Antisense oligonucleotide was administered to the monkeys at 5 mg/kg three times per week for week 1; 5 mg/kg twice per week for week 2 and 3; 10 mg/kg three times per week for week 4; and 10 mg/kg twice per week for weeks 5 to 12. Body weights were measured weekly. Blood samples were collected 14 days and 5 days before the start of treatment and subsequently once per week for Factor 11 protein activity analysis in plasma, fibrinogen measurement, PT and aPTT measurements, bleeding times, and measurement of various hematologic factors. On day 85, the monkeys were euthanized by exsanguination while under deep anesthesia, and organs harvested for further analysis.
The ISIS oligonucleotide, ISIS 416850, given with the chronic dose regimen is distinguished from the other oligonucleotides with an asterisk (*).

[2] = mouse, in vivo, sc, 50 mg/kg

Question: Which results are given for “412223 (antisense ACAGTTTCTGGCAGGCCTCG; 5-10-5 MOE gapmer, further chemistry not given here) [compound 412223]”?
Answer: percent inhibition of Factor 11 at 9.375 nM (human Factor 11 mRNA; 9.375 nM): 33%; percent inhibition of Factor 11 at 18.75 nM (human Factor 11 mRNA; 18.75 nM): 48%; percent inhibition of Factor 11 at 37.5 nM (human Factor 11 mRNA; 37.5 nM): 62%; percent inhibition of Factor 11 at 75 nM (human Factor 11 mRNA; 75 nM): 76%; percent inhibition of Factor 11 at 150 nM (human Factor 11 mRNA; 150 nM): 81%; IC50 (human Factor 11 mRNA): 21 nM

Question: Which results are given for “ISIS 416858: MOE gapmer, nucleobases 1275 to 1318 of SEQ ID NO: 1 (Table 8) (antisense ACGGCATTGGTGCACAGTTT; MOE gapmer, wing and gap sizes not given here)”?
Answer: ALT ([1]; day 22): 28 IU/L; AST ([1]; day 22): 38 IU/L; Bilirubin ([1]; day 22): 0.18 mg/dL; ALT ([1]; day 43): 36 IU/L; AST ([1]; day 43): 39 IU/L; Bilirubin ([1]; day 43): 0.14 mg/dL; ALT ([1]; day 64): 47 IU/L; AST ([1]; day 64): 50 IU/L; Bilirubin ([1]; day 64): 0.12 mg/dL; ALT ([1]; day 85): 50 IU/L; AST ([1]; day 85): 49 IU/L; Bilirubin ([1]; day 85): 0.14 mg/dL; ALT ([1]; day −14): 47 IU/L; AST ([1]; day −14): 58 IU/L; Bilirubin ([1]; day −14): 0.27 mg/dL; HCT [2]: 50%; Lymphocyte [2]: 5480 cells/μL; Neutrophil [2]: 2229 cells/μL; Platelets [2]: 782 10^3/μL; RBC [2]: 9 10^6/μL; WBC [2]: 8 10^3/μL; hemoglobin [2]: 14 g/dL; monocytes [2]: 248 cells/μL

Question: Which results are given for “ISIS 417002: MOE gapmer, nucleobases 1275 to 1318 of SEQ ID NO: 1 (Table 8) (antisense GGTGCACAGTTTCTGGCAGG; MOE gapmer, wing and gap sizes not given here)”?
Answer: ALT ([1]; day 22): 36 IU/L; AST ([1]; day 22): 44 IU/L; Bilirubin ([1]; day 22): 0.20 mg/dL; ALT ([1]; day 43): 35 IU/L; AST ([1]; day 43): 42 IU/L; Bilirubin ([1]; day 43): 0.21 mg/dL; ALT ([1]; day 64): 42 IU/L; AST ([1]; day 64): 37 IU/L; Bilirubin ([1]; day 64): 0.14 mg/dL; ALT ([1]; day 85): 116 IU/L; AST ([1]; day 85): 50 IU/L; Bilirubin ([1]; day 85): 0.12 mg/dL; ALT ([1]; day −14): 61 IU/L; AST ([1]; day −14): 114 IU/L; Bilirubin ([1]; day −14): 0.26 mg/dL

Question: Which results are given for “ISIS 416864: MOE gapmer, nucleobases 1275 to 1318 of SEQ ID NO: 1 (Table 8) (antisense GGCAGCGGACGGCATTGGTG; MOE gapmer, wing and gap sizes not given here)”?
Answer: ALT ([1]; day 22): 37 IU/L; AST ([1]; day 22): 41 IU/L; Bilirubin ([1]; day 22): 0.22 mg/dL; ALT ([1]; day 43): 36 IU/L; AST ([1]; day 43): 40 IU/L; Bilirubin ([1]; day 43): 0.17 mg/dL; ALT ([1]; day 64): 43 IU/L; AST ([1]; day 64): 46 IU/L; Bilirubin ([1]; day 64): 0.16 mg/dL; ALT ([1]; day 85): 43 IU/L; AST ([1]; day 85): 56 IU/L; Bilirubin ([1]; day 85): 0.17 mg/dL; ALT ([1]; day −14): 54 IU/L; AST ([1]; day −14): 76 IU/L; Bilirubin ([1]; day −14): 0.31 mg/dL; HCT [2]: 52%; Lymphocyte [2]: 3921 cells/μL; Neutrophil [2]: 973 cells/μL; Platelets [2]: 750 10^3/μL; RBC [2]: 10 10^6/μL; WBC [2]: 5 10^3/μL; hemoglobin [2]: 15 g/dL; monocytes [2]: 141 cells/μL

Question: What does the source list for “ISIS 416838: MOE gapmer, nucleobases 1018 to 1042 of SEQ ID NO: 1 (Table 6) (antisense GCAACCGGGATGATGAGTGC; MOE gapmer, wing and gap sizes not given here)”?
Answer: ALT ([1]; day 22): 36 IU/L; AST ([1]; day 22): 39 IU/L; Bilirubin ([1]; day 22): 0.17 mg/dL; ALT ([1]; day 43): 35 IU/L; AST ([1]; day 43): 32 IU/L; Bilirubin ([1]; day 43): 0.17 mg/dL; ALT ([1]; day 64): 40 IU/L; AST ([1]; day 64): 33 IU/L; Bilirubin ([1]; day 64): 0.15 mg/dL; ALT ([1]; day 85): 41 IU/L; AST ([1]; day 85): 30 IU/L; Bilirubin ([1]; day 85): 0.13 mg/dL; ALT ([1]; day −14): 76 IU/L; AST ([1]; day −14): 139 IU/L; Bilirubin ([1]; day −14): 0.26 mg/dL
